This passage reports T/C results from PubChem BioAssay AID328 (DTP/NCI, 2004).

“And” between values parts separate entries of the source, which are not always exact repeats. Identical values can stand only once. Inconclusive results and toxic doses are left out.

This experiment deals with BDF1 mice, P388 leukemia ip, median survival T/C. The experiment in a line: NCI In Vivo Anticancer Drug Screen. Data for tumor model P388 Leukemia (intraperitoneal) in B6D2F1 (BDF1) mice. To be noted: endpoint: median survival time, higher = longer survival. In short, it runs like this:
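Antitumour effect was judged in vivo: survival in drug-treated mice, normalised to that of vehicle-dosed controls, gives the reported T/C.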

The mark [1] stands for this setting: dose: 50.0 mg/kg/injection, schedule: Q01DX009 (ip), vehicle: saline.
Where [2] appears, read: dose: 100.0 mg/kg/injection, schedule: Q01DX001 (ip), vehicle: saline sonified.
[3] abbreviates: dose: 200.0 mg/kg/injection, schedule: Q01DX001 (ip), vehicle: saline sonified.
Where [4] appears, read: dose: 100.0 mg/kg/injection, schedule: Q04DX003 (ip), vehicle: Klucel (hydroxypropylcellulose) (HPC).
Setting [5] is: dose: 200.0 mg/kg/injection, schedule: Q04DX003 (ip), vehicle: Klucel (hydroxypropylcellulose) (HPC).
The mark [6] stands for this setting: dose: 100.0 mg/kg/injection, schedule: Q01DX009 (ip), vehicle: Klucel (hydroxypropylcellulose) (HPC).
Where [7] appears, read: dose: 200.0 mg/kg/injection, schedule: Q01DX009 (ip), vehicle: Klucel (hydroxypropylcellulose) (HPC).
[8] abbreviates: dose: 400.0 mg/kg/injection, schedule: Q01DX009 (ip), vehicle: Klucel (hydroxypropylcellulose) (HPC).
[9] abbreviates: dose: 400.0 mg/kg/injection, schedule: Q04DX003 (ip), vehicle: Klucel (hydroxypropylcellulose) (HPC).
Setting [10] is: dose: 50.0 mg/kg/injection, schedule: Q01DX001 (ip), vehicle: saline sonified.
Setting [11] is: dose: 50.0 mg/kg/injection, schedule: Q01DX009 (ip), vehicle: saline with Tween-80.
Setting [12] is: dose: 6.25 mg/kg/injection, schedule: Q01DX009 (ip), vehicle: saline.
[13] abbreviates: dose: 12.5 mg/kg/injection, schedule: Q01DX009 (ip), vehicle: saline.
Setting [14] is: dose: 25.0 mg/kg/injection, schedule: Q01DX009 (ip), vehicle: saline.
Setting [15] is: dose: 100.0 mg/kg/injection, schedule: Q04DX003 (ip), vehicle: water.
Setting [16] is: dose: 200.0 mg/kg/injection, schedule: Q04DX003 (ip), vehicle: water.

For the compound `NC(N)=NCCCCCC(=O)Oc1ccc([N+](=O)[O-])cc1`, the T/C under setting [1] was 96 % of control; the T/C (dose: 50.0 mg/kg/injection, schedule: Q04DX003 (ip), vehicle: saline) is 90 % of control and 91 % of control; the T/C (dose: 100.0 mg/kg/injection, schedule: Q01DX009 (ip), vehicle: saline) was 99 % of control; the T/C (dose: 100.0 mg/kg/injection, schedule: Q04DX003 (ip), vehicle: saline) was 87 % of control and 90 % of control; the T/C (dose: 200.0 mg/kg/injection, schedule: Q01DX009 (ip), vehicle: saline) was 115 % of control; the T/C (dose: 200.0 mg/kg/injection, schedule: Q04DX003 (ip), vehicle: saline) is 91 % of control and 100 % of control.

`Nc1n[nH]c([N+](=O)[O-])n1`: the T/C under setting [2] is 108 % of control; the T/C under setting [3] is 100 % of control; the T/C (dose: 400.0 mg/kg/injection, schedule: Q01DX001 (ip), vehicle: saline sonified) is 100 % of control.

For the compound `CC(=O)OCCC/C(=C/c1ccc(/C=C(\CCCOC(C)=O)[N+](=O)[O-])cc1)[N+](=O)[O-]`, the T/C (dose: 50.0 mg/kg/injection, schedule: Q04DX003 (ip), vehicle: Klucel (hydroxypropylcellulose) (HPC)) was 96 % of control; the T/C under setting [4] is 101 % of control; the T/C under setting [5] is 101 % of control.

Turning to `CCN(CC)CCOC(=O)CSC1C2CC3C(C2)C31` (stereo unspecified), the T/C was 106 % of control (dose: 50.0 mg/kg/injection, schedule: Q01DX009 (ip), vehicle: suspension in saline); 93 % of control (dose: 100.0 mg/kg/injection, schedule: Q01DX001 (ip), vehicle: suspension in saline); 107 % of control (dose: 100.0 mg/kg/injection, schedule: Q01DX009 (ip), vehicle: suspension in saline); 101 % of control (dose: 200.0 mg/kg/injection, schedule: Q01DX001 (ip), vehicle: suspension in saline); 109 % of control (dose: 200.0 mg/kg/injection, schedule: Q01DX009 (ip), vehicle: suspension in saline); 102 % of control (dose: 400.0 mg/kg/injection, schedule: Q01DX001 (ip), vehicle: suspension in saline). In addition, the T/C (dose: 400.0 mg/kg/injection, schedule: Q01DX009 (ip), vehicle: suspension in saline) is 111 % of control and the T/C (dose: 600.0 mg/kg/injection, schedule: Q01DX001 (ip), vehicle: suspension in saline) is 105 % of control.

With `CCOC(=O)CNC(c1ccccc1)(c1ccccc1)c1ccccc1`, the T/C runs as follows: under setting [6], 95 % of control; under setting [4], 109 % of control; under setting [7], 91 % of control; under setting [5], 113 % of control; under setting [8], 108 % of control; under setting [9], 104 % of control.

In the case of `Oc1ccc(Nc2ccnc3cc(Cl)ccc23)cc1CN(CCCl)CCCl`, the T/C was 177 % of control (dose: 1.25 mg/kg/injection, schedule: Q01DX009 (ip), vehicle: saline); 194 % of control (dose: 2.5 mg/kg/injection, schedule: Q01DX009 (ip), vehicle: saline); 163 % of control (dose: 3.3 mg/kg/injection, schedule: Q04DX003 (ip), vehicle: saline); 150 % of control (dose: 5.0 mg/kg/injection, schedule: Q01DX009 (ip), vehicle: saline); 163 % of control (dose: 5.0 mg/kg/injection, schedule: Q04DX003 (ip), vehicle: saline); 160 % of control (dose: 10.0 mg/kg/injection, schedule: Q04DX003 (ip), vehicle: saline with Tween-80).

Consider `COc1ccc(NC(=O)Oc2ccc(OC)cc2)cc1`, for which the T/C is, setting by setting: under setting [4], 95 % of control; under setting [5], 100 % of control; under setting [9], 91 % of control.

`CCNC1=C(N2CC2)C(=O)C(NCC)=C(N2CC2)C1=O`: the T/C was 156 % of control and 175 % of control (dose: 0.37 mg/kg/injection, schedule: Q01DX009 (ip), vehicle: saline); 193 % of control and 203 % of control (dose: 0.75 mg/kg/injection, schedule: Q01DX009 (ip), vehicle: saline); 228 % of control and 178 % of control (dose: 1.5 mg/kg/injection, schedule: Q01DX009 (ip), vehicle: saline).

As for `Oc1ccccc1C=NC1CCCCC1.Oc1ccccc1C=NC1CCCCC1.[Co+2]`, the T/C is, setting by setting: under setting [10], 90 % of control; under setting [2], 109 % of control; under setting [3], 109 % of control.

As for `CC1(C)CCC(C#N)=C1N`, the T/C is, setting by setting: (dose: 12.5 mg/kg/injection, schedule: Q01DX009 (ip), vehicle: saline with Tween-80) 95 % of control; (dose: 25.0 mg/kg/injection, schedule: Q01DX009 (ip), vehicle: saline with Tween-80) 91 % of control; under setting [11], 95 % of control.

`COC(=O)CCN(c1ccccc1)S(=O)(=O)c1ccc(C)cc1`: the T/C is 104 % of control under setting [6]; 100 % of control under setting [4]; 104 % of control under setting [7]; 100 % of control under setting [5]; 95 % of control under setting [8]; 100 % of control under setting [9].

With `CC(C)(C)C1CC[N-]CC1.CC(C)(C)C1CC[N-]CC1.[Cl][Pt+2]([Cl])([Cl])[Cl]`, the T/C runs as follows: (dose: 0.78 mg/kg/injection, schedule: Q01DX009 (ip), vehicle: saline) 110 % of control; (dose: 1.56 mg/kg/injection, schedule: Q01DX009 (ip), vehicle: saline) 115 % of control and 117 % of control; (dose: 3.12 mg/kg/injection, schedule: Q01DX009 (ip), vehicle: saline) 100 % of control and 102 % of control and 111 % of control; under setting [12], 86 % of control and 108 % of control; under setting [13], 115 % of control; under setting [14], 91 % of control and 115 % of control.

With `CC[CH2][Pb]([Cl])([CH2]CC)[CH2]CC`, the T/C reads like this: (dose: 0.18 mg/kg/injection, schedule: Q01DX009 (ip), vehicle: DMSO) 87 % of control; (dose: 0.37 mg/kg/injection, schedule: Q01DX009 (ip), vehicle: DMSO) 109 % of control; (dose: 0.75 mg/kg/injection, schedule: Q01DX009 (ip), vehicle: DMSO) 102 % of control.

`CC(C)CCC[C@@H](C)[C@H]1CC[C@H]2[C@@H]3CC[C@H]4C[C@H]5N[C@H]5C[C@]4(C)[C@H]3CC[C@]12C`: the T/C under setting [10] was 100 % of control and the T/C under setting [2] is 95 % of control.

With `COc1ccc(C2C=C(C)Oc3c2c(=O)oc2ccccc32)cc1OC` (stereo unspecified), the T/C was 98 % of control (dose: 6.25 mg/kg/injection, schedule: Q04DX003 (ip), vehicle: water); 91 % of control (dose: 12.5 mg/kg/injection, schedule: Q01DX009 (ip), vehicle: water); 104 % of control (dose: 12.5 mg/kg/injection, schedule: Q04DX003 (ip), vehicle: water); 100 % of control (dose: 25.0 mg/kg/injection, schedule: Q04DX003 (ip), vehicle: water); 100 % of control (dose: 50.0 mg/kg/injection, schedule: Q04DX003 (ip), vehicle: water); 88 % of control and 96 % of control under setting [15]. The T/C under setting [16] is 94 % of control and the T/C (dose: 400.0 mg/kg/injection, schedule: Q04DX003 (ip), vehicle: water) was 90 % of control.

For the compound `CNC1C(O)C(NC)C2OC3(O)C(=O)CC(C)OC3OC2C1O` (stereo unspecified), the T/C under setting [12] was 112 % of control, the T/C under setting [13] is 106 % of control, the T/C under setting [14] was 97 % of control and the T/C under setting [1] is 106 % of control.

Regarding `COC(=O)C(C#N)=N/C(=C/C=C1/N(C)c2ccccc2C1(C)C)c1ccccc1`, the T/C was 102 % of control under setting [11]; 96 % of control (dose: 100.0 mg/kg/injection, schedule: Q01DX009 (ip), vehicle: saline with Tween-80); 97 % of control (dose: 200.0 mg/kg/injection, schedule: Q01DX009 (ip), vehicle: saline with Tween-80).

In the case of `CCS(=O)(=O)c1ncc2cnccn12`, the T/C (dose: 100.0 mg/kg/injection, schedule: Q01DX009 (ip), vehicle: water) was 92 % of control; the T/C under setting [15] was 95 % of control; the T/C (dose: 200.0 mg/kg/injection, schedule: Q01DX009 (ip), vehicle: water) was 105 % of control; the T/C under setting [16] is 91 % of control; the T/C (dose: 400.0 mg/kg/injection, schedule: Q01DX009 (ip), vehicle: water) was 100 % of control.
